# Like-named read-outs stand apart in the source and are kept apart here.
# How the values were obtained:
# hepatitis B virus (HBV) [1] = assay: Humanized liver chimeric mouse model of chronic HBV infection, serum HBV DNA by quantitative PCR; assay type: in vivo; conditions: mean
# Procedure: (§1) This work was conducted in a well-established humanized liver chimeric mouse model of chronic hepatitis B virus (HBV) infection (Tsuge et al., Hepatology, 42(5), 1046-54 (2005)). A persistent level of HBV infection was established in the animals prior to the treatment phase which started at Day 0.
# (§2) The anti-HBV effects were assessed based on serum HBsAg levels using the GS HBsAg EIA 3.0 enzyme linked immunosorbent assay kit from Bio-Rad Laboratories as per manufacturer instructions; and serum HBV DNA levels measured from total extracted DNA using a quantitative PCR assay (primer/probe sequences from Tanaka et al., Journal of Medical Virology, 72, 223-229 (2004)).
# hepatitis B virus (HBV) [2] = assay: Humanized liver chimeric mouse model of chronic HBV infection, serum HBsAg by EIA; assay type: in vivo; conditions: mean ± SEM
# Procedure: as §1, §2
# [3] = test system: HBV rcDNA in AML12-HBV10 cells; assay: AML12-HBV10 cell culture system, rcDNA quantitation using bDNA assay, MacSynergy II; assay type: cell-based, mouse hepatocyte cell line; conditions: for EC50: rcDNA, AML12-HBV10 cells, 48 hrs, read-out: Inhibitor EC50; for inhibition at 0.01 µM: Compound 3 0.010 μM; for inhibition at 0.02 µM: Compound 3 0.020 μM; for inhibition at 0.039 µM: Compound 3 0.039 μM; for inhibition at 0.078 µM: Compound 3 0.078 μM; for inhibition at 0.313 µM: Compound 3 0.313 μM; for inhibition at 0.625 µM: Compound 3 0.625 μM; for inhibition at 1.25 µM: Compound 3 1.250 μM
# Procedure: In vitro combination studies were conducted using the method of Prichard and Shipman (Prichard M N, and Shipman C Jr., Antiviral Research, 1990, 14 (4-5), 181-205; and Prichard M N, et. al., MacSynergy II). The AML12-HBV10 cell line was developed as described in Campagna et al. (Campagna et. al., J. Virology, 2013, 87(12), 6931-6942). It is a mouse hepatocyte cell line stably transfected with the HBV genome, and which can express HBV pregenomic RNA and support HBV rcDNA (relaxed circular DNA) synthesis in a tetracycline-regulated manner. AML12-HBV10 cells were plated in 96 well tissue-culture treated microtiter plates in DMEM/F12 medium supplemented with 10% fetal bovine serum +1% penicillin-streptomycin without tetracycline and incubated in a humidified incubator at 37° C. and 5% CO2 overnight. […] The two inhibitors were tested both singly as well as in combinations in a checkerboard fashion such that each concentration of inhibitor A was combined with each concentration of inhibitor B to determine their combination effects on inhibition of rcDNA production. Following a 48 hour-incubation, the level of rcDNA present in the inhibitor-treated wells was measured using a bDNA assay (Affymetrix) with HBV specific custom probe set and manufacturer's instructions. […] Concurrently, the effect of inhibitor combinations on cell viability was assessed using replicate plates that were used to determine the ATP content as a measure of cell viability using the cell-titer glo reagent (Promega) as per manufacturer's instructions.
# [4] = test system: D type HBV in primary human hepatocytes (HBeAg); assay: microbe, parasite or virus in culture; assay type: cell-based; conditions: Hepatitis B virus, Hepatocyte
# How it was run: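 Primary hepatocytes isolated by liver perfusion and Percoll-purified were infected with genotype D HBV one day post-seeding. Compounds were added on day 2 (7 concentrations, 3-fold dilutions, triplicate), with medium refreshed every other day. Day-8 supernatant HBeAg was measured by ELISA and expressed as % inhibition versus DMSO control.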
# [5] = Hepatitis B virus, AML12HBV10, in Mus musculus, ETV μM: 0.075, 0.025, 0.008, 0.003, 0.001, 0
# [6] = Hepatitis B virus, AML12HBV10, in Mus musculus, SIRNA-NP μg/mL: 0.5, 0.167, 0.056, 0.019, 0.006, 0
structure (smiles),measurement,setting,value
CC[C@@H](C)NS(=O)(=O)c1ccc(F)c(C(=O)Nc2ccc(F)c(F)c2)c1 [Compound 3],Serum HBV DNA,"hepatitis B virus (HBV) [1]; Day 0 (start of treatment), SEM in the line below",1.70E+08 Copies/mL
same,Serum HBV DNA,"hepatitis B virus (HBV) [1]; Day 7, Compound 3 oral 100 mg/kg twice daily, SIRNA-NP iv 3 mg/kg every 2 weeks, ETV oral 1.2 μg/kg daily, pegIFN α-2a sc 30 μg/kg twice a week",1.33E+07 Copies/mL
same,Serum HBV DNA,"hepatitis B virus (HBV) [1]; Day 14, same dosages",1.28E+07 Copies/mL
same,Serum HBV DNA,"hepatitis B virus (HBV) [1]; Day 21, same dosages",1.02E+07 Copies/mL
same,Serum HBV DNA,"hepatitis B virus (HBV) [1]; Day 28, same dosages",1.17E+07 Copies/mL
same,Serum HBsAg,hepatitis B virus (HBV) [2]; Day 0 (start of treatment),2965 ± 616 IU/mL
same,Serum HBsAg,"hepatitis B virus (HBV) [2]; Day 21, Compound 3 oral 100 mg/kg twice daily, SIRNA-NP iv 3 mg/kg every 2 weeks, ETV oral 1.2 μg/kg daily, pegIFN α-2a sc 30 μg/kg twice a week",4158 ± 355 IU/mL
same,EC50,"[3]; Hepatitis B virus, AML12HBV10, in Mus musculus, 48 h",0.25 µM
same,inhibition at 0.01 µM,[3]; [5],-3.19%
same,inhibition at 0.01 µM,[3]; [6],-1.98%
same,inhibition at 0.02 µM,[3]; [5],0.62%
same,inhibition at 0.02 µM,[3]; [6],-20.5%
same,inhibition at 0.039 µM,[3]; [5],7.38%
same,inhibition at 0.039 µM,[3]; [6],-16.9%
same,inhibition at 0.078 µM,[3]; [5],-1.81%
same,inhibition at 0.078 µM,[3]; [6],20.1%
same,inhibition at 0.313 µM,[3]; [5],71%
same,inhibition at 0.313 µM,[3]; [6],59.4%
same,inhibition at 0.625 µM,[3]; [5],80.8%
same,inhibition at 0.625 µM,[3]; [6],79.9%
same,inhibition at 1.25 µM,[3]; [5],86.7%
same,inhibition at 1.25 µM,[3]; [6],88.1%
same,inhibition at 2.5 µM,"[3]; Hepatitis B virus, AML12HBV10, in Mus musculus, Compound 3 2.500 μM, ETV μM: 0.075, 0.025, 0.008, 0.003, 0.001, 0",90.5%
same,inhibition at 2.5 µM,"[3]; Hepatitis B virus, AML12HBV10, in Mus musculus, Compound 3 2.5 μM, SIRNA-NP μg/mL: 0.5, 0.167, 0.056, 0.019, 0.006, 0",89.7%
same,EC50,[3],0.231 µM
same,EC50,"[4]; 456 h, read-out: Inhibitor B EC50",8.85 µM
same,EC50,"[4]; 576 h, read-out: Inhibitor B EC50 HBeAg",8.58 µM
same,inhibition at 0.06173 µM,"[4]; read-out: AVERAGE % INHIBITION HBeAg, COMPOUND 3 61.73 nM alone",-11.3%
same,inhibition at 0.18519 µM,"[4]; read-out: AVERAGE % INHIBITION HBeAg, COMPOUND 3 185.19 nM alone",-16%
same,inhibition at 0.55556 µM,"[4]; read-out: AVERAGE % INHIBITION HBeAg, COMPOUND 3 555.56 nM alone",-5.39%
same,inhibition at 1.66667 µM,"[4]; read-out: AVERAGE % INHIBITION HBeAg, COMPOUND 3 1666.67 nM alone",2.34%
same,inhibition at 5 µM,"[4]; read-out: AVERAGE % INHIBITION HBeAg, COMPOUND 3 5000.00 nM alone",27.3%
same,inhibition at 61.73 µM,"[4]; read-out: AVERAGE % INHIBITION HBeAg, COMPOUND 3 61.73 μM alone",-11.1%
same,inhibition at 185.19 µM,"[4]; read-out: AVERAGE % INHIBITION HBeAg, COMPOUND 3 185.19 μM alone",-4.9%
same,inhibition at 555.56 µM,"[4]; read-out: AVERAGE % INHIBITION HBeAg, COMPOUND 3 555.56 μM alone",-1.02%
same,inhibition at 0.06859 µM,"[4]; read-out: AVERAGE % INHIBITION, TAF 0.00 nM, COMPOUND 3 68.59 nM",-5.05%
same,inhibition at 0.20576 µM,"[4]; read-out: AVERAGE % INHIBITION, TAF 0.00 nM, COMPOUND 3 205.76 nM",-6.33%
same,inhibition at 0.61728 µM,"[4]; read-out: AVERAGE % INHIBITION, TAF 0.00 nM, COMPOUND 3 617.28 nM",2.77%
same,inhibition at 1.85185 µM,"[4]; read-out: AVERAGE % INHIBITION, TAF 0.00 nM, COMPOUND 3 1851.85 nM",29.7%
same,inhibition at 5.55556 µM,"[4]; read-out: AVERAGE % INHIBITION, TAF 0.00 nM, COMPOUND 3 5555.56 nM",40.4%
same,EC50,[4]; read-out: Inhibitor EC50,8.85 µM

# — patent publication US20220265817A1, “THERAPEUTIC COMPOSITIONS AND METHODS FOR TREATING HEPATITIS B” (priority 2017, published 2022)
